In article PMC7397269, “Synthesis and Evaluation of New Coumarin Derivatives as Antioxidant, Antimicrobial, and Anti-Inflammatory Agents” (Molecules, 2020):
Converted amounts (≈) assume the structure as drawn. “And” between values parts separate entries of the source, which are not always exact repeats. Equal entries are not always repeated. Where two headings read alike, the source gives them in different places.

Tests used:
[1] = target: T1, COX-1 (Homo sapiens, UniProt P23219); assay: COX-1 inhibition, Cayman assay kit; type: biochemical; settings: mean of two determinations
T1 construct: purchased Cayman Chemical 701070

[2] = system: Bacillus subtilis ATCC 6633; assay: MIC, two-fold serial dilution, B. subtilis; type: cell-based; settings: ATCC6633, read-out: Minimum inhibitory concentration, BS
Excerpt: (§1) The new molecules were individually tested for their antimicrobial activity in vitro against standard bacteria strains from the American Type Culture Collection (ATCC), namely, Staphylococcus aureus ATCC 29213, Bacillus subtilis ATCC 6633, Bacillus megaterium ATCC 9885 (Gram-positive), Escherichia coli ATCC 2592, and Pseudomonas aeruginosa ATCC 27,953 (Gram-negative). The compounds were also microbiologically tested against locally isolated Saccharomyces cerevisiae (yeast) and the standard Agricultural Research Service Culture Collection (NRRL) strain of the yeast-like pathogenic fungus Candida albicans NRRL Y-477. Primary screening was conducted using the agar well diffusion method using nutrient agar (NA) medium and Sabourand dextrose agar (SDA) medium for the tested pathological bacteria and yeast, respectively. […].
(§2) The bacteriostatic activity of the active compounds (having IZ > 16 mm) was then evaluated using the two-fold serial dilution technique. Two-fold serial dilutions of the tested compounds solutions were prepared using the proper nutrient broth to reach final concentrations of 1000, 500, 250, and 125 μg/mL. The tubes were then inoculated with the test microorganisms grown in their suitable broth at 37 °C for 24 h (1 × 10^8 CFU/mL for bacteria and 1 × 10^6 CFU/mL of yeast), 0.1 mL of the above inoculum was administered per 5 mL, and the tubes were incubated at 37 °C for 24 h. The lowest concentration showing no growth was taken as the MIC.

[3] = system: Candida albicans NRRL Y-477; assay: Agar well diffusion, C. albicans; type: cell-based; settings: NRRLY477, 100 μL of 10 mg/mL in DMSO, read-out: diameter of inhibition zone, CA
How it was run: (§3)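 Agar well diffusion; NA for bacteria, SDA for yeast; inoculum 1 × 10^8 CFU/mL bacteria, 1 × 10^6 CFU/mL yeast. 100 μL of 10 mg/mL compound in DMSO per 10 mm well. 24 h, 37 °C; zone diameter, mm, n=3.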

[4] = target: T2, COX-2 (Homo sapiens, UniProt P35354); assay: COX-2 inhibition, Cayman assay kit; type: biochemical; settings: for IC50: mean of two determinations; for SI, selectivity index (COX-1/COX-2): ratio of COX-1/COX-2 IC50
T2 construct: purchased Cayman Chemical 701080
T2 sequence (P35354 18-604): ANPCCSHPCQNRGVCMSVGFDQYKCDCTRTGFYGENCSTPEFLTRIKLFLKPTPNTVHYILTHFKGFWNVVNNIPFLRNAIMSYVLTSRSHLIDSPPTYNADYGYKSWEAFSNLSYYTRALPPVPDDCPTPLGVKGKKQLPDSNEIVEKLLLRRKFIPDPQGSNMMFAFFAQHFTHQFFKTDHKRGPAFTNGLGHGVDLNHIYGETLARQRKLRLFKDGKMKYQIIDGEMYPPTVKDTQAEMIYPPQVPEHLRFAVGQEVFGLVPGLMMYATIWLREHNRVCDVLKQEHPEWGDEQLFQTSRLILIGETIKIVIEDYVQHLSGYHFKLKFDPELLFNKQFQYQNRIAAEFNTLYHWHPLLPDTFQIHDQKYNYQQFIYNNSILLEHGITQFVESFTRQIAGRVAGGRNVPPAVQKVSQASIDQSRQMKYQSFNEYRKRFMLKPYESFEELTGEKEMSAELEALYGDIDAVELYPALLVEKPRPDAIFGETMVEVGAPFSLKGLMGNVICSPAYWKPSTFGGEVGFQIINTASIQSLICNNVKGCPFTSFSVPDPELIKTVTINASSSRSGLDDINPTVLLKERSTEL

[5] = system: trypsin; assay: Proteinase-inhibitory activity; type: biochemical; settings: 250 µg/mL; mean ± SD (n = 3)
How it was run: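 Trypsin (0.06 mg per 2 mL, 20 mM Tris-HCl pH 7.4) was preincubated 5 min with test sample at 250 µg/mL, then 0.8% casein was added for 20 min. Perchloric acid stopped the reaction and supernatant absorbance was read at 280 nm. % inhibition is relative to the no-sample control, in triplicate.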

[6] = system: Bacillus subtilis ATCC 6633; assay: Agar well diffusion, B. subtilis; type: cell-based; settings: ATCC6633, 100 μL of 10 mg/mL in DMSO, read-out: diameter of inhibition zone, BS
How it was run: as §3

[7] = system: formaldehyde-induced rat paw oedema; assay: Formaldehyde-induced rat paw oedema (prophylactic); type: in vivo; settings: for paw volume reduced compared to positive control: 25 mg/kg orally
[8] = DPPH antioxidant assay (radical scavenging); type: biochemical; settings: mean ± SD (n = 3)
How it was run: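 Compounds, starting at 200 μg/mL, were mixed with 0.2 mM methanolic DPPH and incubated 30 min in the dark at 25 °C; absorbance was read at 515 nm. % inhibition is background-corrected against DPPH-only control, with IC50 from curve fit. Runs were triplicate (mean ± SD), with ascorbic acid as positive control.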

[9] = system: Staphylococcus aureus ATCC 29213; assay: Agar well diffusion, S. aureus; type: cell-based; settings: ATCC29213, 100 μL of 10 mg/mL in DMSO, read-out: diameter of inhibition zone, SA
How it was run: as §3

[10] = system: Escherichia coli ATCC 2592; assay: Agar well diffusion, E. coli; type: cell-based; settings: ATCC2592, 100 μL of 10 mg/mL in DMSO, read-out: diameter of inhibition zone, EC
How it was run: as §3

[11] = system: Bacillus megaterium ATCC 9885; assay: Agar well diffusion, B. megaterium; type: cell-based; settings: Priestia megaterium, ATCC9885, 100 μL of 10 mg/mL in DMSO, read-out: diameter of inhibition zone, BM
How it was run: as §3

[12] = system: Pseudomonas aeruginosa ATCC 27,953; assay: Agar well diffusion, P. aeruginosa; type: cell-based; settings: ATCC27, 100 μL of 10 mg/mL in DMSO, read-out: diameter of inhibition zone, PA
How it was run: as §3

[13] = system: Saccharomyces cerevisiae local isolate; assay: Agar well diffusion, S. cerevisiae; type: cell-based; settings: read-out: diameter of inhibition zone, SC
How it was run: as §3

[14] = system: Bacillus megaterium ATCC 9885; assay: MIC, two-fold serial dilution, B. megaterium; type: cell-based; settings: Priestia megaterium, ATCC9885, read-out: Minimum inhibitory concentration, BM
Excerpt: as §1, §2

[15] = system: Saccharomyces cerevisiae local isolate; assay: MIC, two-fold serial dilution, S. cerevisiae; type: cell-based; settings: read-out: Minimum inhibitory concentration, SC
How it was run: (§4)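 Compounds with agar-well inhibition zones >16 mm were retested by two-fold broth dilution at final concentrations of 1000, 500, 250 and 125 μg/mL. Inocula of 1 × 10^8 CFU/mL (bacteria) or 1 × 10^6 CFU/mL (yeast), 0.1 mL per 5 mL. MIC = lowest concentration without growth after 24 h at 37 °C.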

[16] = system: Candida albicans NRRL Y-477; assay: MIC, two-fold serial dilution, C. albicans; type: cell-based; settings: NRRLY477, read-out: Minimum inhibitory concentration, CA
How it was run: as §4

[17] = system: Pseudomonas aeruginosa ATCC 27,953; assay: MIC, two-fold serial dilution, P. aeruginosa; type: cell-based; settings: ATCC27, read-out: Minimum inhibitory concentration, PA
Excerpt: as §1, §2

[18] = system: tested microorganisms; assay: MIC, summary over the tested microorganisms; type: cell-based; settings: two-fold serial dilution
Excerpt: as §1, §2

[19] = system: Staphylococcus aureus ATCC 29213; assay: MIC, two-fold serial dilution, S. aureus; type: cell-based; settings: ATCC29213, read-out: Minimum inhibitory concentration, SA
Excerpt: as §1, §2

[20] = system: Escherichia coli ATCC 2592; assay: MIC, two-fold serial dilution, E. coli; type: cell-based; settings: ATCC2592, read-out: Minimum inhibitory concentration, EC
Excerpt: as §1, §2

T1 sequence (P23219 24-599): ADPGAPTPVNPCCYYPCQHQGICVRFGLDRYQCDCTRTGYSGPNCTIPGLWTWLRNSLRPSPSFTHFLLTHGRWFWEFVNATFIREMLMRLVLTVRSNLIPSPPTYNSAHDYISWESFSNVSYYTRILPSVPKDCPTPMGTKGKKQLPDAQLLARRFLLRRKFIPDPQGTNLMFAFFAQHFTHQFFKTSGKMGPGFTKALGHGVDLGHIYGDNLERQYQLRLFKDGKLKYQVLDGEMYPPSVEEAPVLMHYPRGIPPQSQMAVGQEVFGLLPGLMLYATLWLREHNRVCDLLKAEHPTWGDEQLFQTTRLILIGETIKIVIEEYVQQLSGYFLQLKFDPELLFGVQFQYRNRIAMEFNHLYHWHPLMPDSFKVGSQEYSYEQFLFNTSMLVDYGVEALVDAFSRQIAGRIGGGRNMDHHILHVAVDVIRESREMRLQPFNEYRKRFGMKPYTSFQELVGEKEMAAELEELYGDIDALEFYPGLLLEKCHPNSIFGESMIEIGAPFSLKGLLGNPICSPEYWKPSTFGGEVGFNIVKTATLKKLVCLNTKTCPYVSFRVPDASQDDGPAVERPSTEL

## Cc1ccc2oc(=O)c3c(c2c1)OC(N)=C(C(N)=O)C3c1ccc([N+](=O)[O-])cc1 (racemic) [3a, (±)-2-Amino-9-methyl-4-(4-nitrophenyl)-5-oxo-4H,5H-pyrano[3,2-c]chromene-3-carboxamide]
[1]
  IC50: 183 µM
[2]
  MIC: 1000 µg/mL (≈ 2540 µM)
other
  melting point: 142 to 144 °C
[3]
  zone of inhibition at 10000 µg/mL: < 15 mm
[4]
  IC50: 9.81 µM
  SI, selectivity index (COX-1/COX-2): 18.68
[5]
  % Inhibition (proteinase): 79.72 ± 4.51%
[6]
  zone of inhibition at 10000 µg/mL: 18 mm
[7]; 2.5 mg/kg orally, 1 h after inducing inflammation
  % inhibition of paw oedema: 29.2%
[8]
  IC50: — ((—): inactive (IC50 > 200 μg/mL))
[9]
  zone of inhibition at 10000 µg/mL: < 15 mm
[10]
  zone of inhibition at 10000 µg/mL: 16 mm
[11]
  zone of inhibition at 10000 µg/mL: 16 mm
[12]
  zone of inhibition at 10000 µg/mL: 15 mm
[13]
  zone of inhibition at 10000 µg/mL: < 15 mm

## Cc1ccc2oc(=O)c(S(=O)(=O)Nc3ccc(C(=O)/C=C/c4ccc(Cl)cc4)cc3)c(O)c2c1 [9d, (E)-N-(4-(3-(4-chlorophenyl)acryloyl)phenyl)-4-hydroxy-6-methyl-2-oxo-2H-chromene-3-sulfonamide]
[2]
  MIC: 250 µg/mL (≈ 504 µM)
other
  melting point: 141 to 143 °C
[3]
  zone of inhibition at 10000 µg/mL: 30 mm
[5]
  % Inhibition (proteinase): 31.88 ± 3.82%
[6]
  zone of inhibition at 10000 µg/mL: 29 mm
[14]
  MIC: 250 µg/mL (≈ 504 µM)
[15]; two-fold serial dilution, S. cerevisiae
  MIC: 125 µg/mL (≈ 252 µM)
[8]
  IC50: — ((—): inactive (IC50 > 200 μg/mL))
[9]
  zone of inhibition at 10000 µg/mL: 28 mm
[16]
  MIC: 125 µg/mL (≈ 252 µM)
[17]
  MIC: 250 µg/mL (≈ 504 µM)
[10]
  zone of inhibition at 10000 µg/mL: 38 mm
[18]; read-out: MIC against one or more tested microorganisms
  MIC: 125 µg/mL (≈ 252 µM)
[11]
  zone of inhibition at 10000 µg/mL: 29 mm
[12]
  zone of inhibition at 10000 µg/mL: 29 mm
[19]
  MIC: 250 µg/mL (≈ 504 µM)
[20]
  MIC: 250 µg/mL (≈ 504 µM)
[13]; well diffusion, 100 μL of 10 mg/mL in DMSO, S. cerevisiae
  zone of inhibition at 10000 µg/mL: 31 to 32 mm

## COc1ccc2c(c1)c(CC(=O)O)c(C)n2C(=O)c1ccc(Cl)cc1 [Indomethacin, reference compound]
[7]; 1 h after formaldehyde
  paw volume reduced compared to positive control: 72.09%
[7]; 2 h after formaldehyde
  paw volume reduced compared to positive control: 74.79%
[7]; 3 h after formaldehyde
  paw volume reduced compared to positive control: 71.5%

## Cc1ccc2oc(=O)c3c(c2c1)OC(/N=C/c1ccccc1)=C(C#N)C3c1ccc([N+](=O)[O-])cc1 (racemic) [5a, (±)-2-(benzylideneamino)-9-methyl-4-(4-nitrophenyl)-5-oxo-4H,5H-pyrano[3,2-c]chromene-3-carbonitrile]
[1]
  IC50: 1130 µM
[2]
  MIC: 250 µg/mL (≈ 539 µM)
other
  melting point: 208 to 209 °C
[3]
  zone of inhibition at 10000 µg/mL: 25 mm
[4]
  IC50: 7.41 µM
  SI, selectivity index (COX-1/COX-2): 152 and 152.02
[6]
  zone of inhibition at 10000 µg/mL: 27 mm
[14]
  MIC: 500 µg/mL (≈ 1080 µM)
[15]
  MIC: 500 µg/mL (≈ 1080 µM)
[8]
  IC50: — ((—): inactive (IC50 > 200 μg/mL))
[9]
  zone of inhibition at 10000 µg/mL: 25 mm
[16]
  MIC: 500 µg/mL (≈ 1080 µM)
[17]
  MIC: 500 µg/mL (≈ 1080 µM)
[10]
  zone of inhibition at 10000 µg/mL: 26 mm
[18]; read-out: MIC against most tested microorganisms
  MIC: 250 to 500 µg/mL (≈ 539 to 1080 µM)
[11]
  zone of inhibition at 10000 µg/mL: 22 mm
[12]
  zone of inhibition at 10000 µg/mL: 24 mm
[19]
  MIC: 250 µg/mL (≈ 539 µM)
[20]
  MIC: 250 µg/mL (≈ 539 µM)
[13]
  zone of inhibition at 10000 µg/mL: 26 mm
